Results from patent US4740502A, “Semisynthetic erythromycin antibiotics” (Abbott Laboratories, priority 1986, dated 1988).
Values after ≈ are worked out from the molar mass of the structure shown.

Tests used:
[1] = system: stomach, duodenum and jejunum; test: Gastrointestinal motility (stimulating activity) in a dog model, strain gauges
Protocol: Contractions in the gut were recorded with surgically implanted strain gauges. The contractile scores were determined according to the method of Jacoby, et al., as described in "Gastrointestinal Actions of Metoclopramide," Gastroenterology, Vol. 52, No. 4 (1967), pp. 676-684 by giving a numerical score to the height of each recorded contraction in the one hour period after administration of the test compound. […] Ratios were calculated for the stomach, duodenum and jejunum, and a final arithmetic mean index was calculated and reported in Table I.

[2] = system: E. coli H560; test: Agar dilution MIC, E. coli H560; settings: Escherichia coli, H560, 22 h
[3] = system: Strep. pyogenes 930; test: Agar dilution MIC, Strep. pyogenes 930; settings: Streptococcus pyogenes, 930, 22 h
[4] = system: Staph. epidermidis 3519; test: Agar dilution MIC, Staph. epidermidis 3519; settings: Staphylococcus epidermidis, 3519, 22 h
[5] = system: Strep. faecium ATCC 8043; test: Agar dilution MIC, Strep. faecium ATCC 8043; settings: Enterococcus faecium, ATCC8043, 22 h
[6] = system: Acinetobacter SP CMX 669; test: Agar dilution MIC, Acinetobacter SP CMX 669; settings: SPCMX669, 22 h
[7] = system: Ent. aerogenes ATCC 10348; test: Agar dilution MIC, Ent. aerogenes ATCC 10348; settings: Klebsiella aerogenes, ATCC10348, 22 h
[8] = system: Pseudomonas aeruginosa 5007; test: Agar dilution MIC, Pseudomonas aeruginosa 5007; settings: Pseudomonas aeruginosa, 5007, 22 h
[9] = system: Providencia stuartii CMX 640; test: Agar dilution MIC, Providencia stuartii CMX 640; settings: CMX640, 22 h
[10] = system: Pseudomonas aeruginosa K799/WT; test: Agar dilution MIC, Pseudomonas aeruginosa K799/WT; settings: 22 h
[11] = system: Pseudomonas aeruginosa K799/61; test: Agar dilution MIC, Pseudomonas aeruginosa K799/61; settings: K799/61, 22 h
[12] = system: E. coli SS; test: Agar dilution MIC, E. coli SS; settings: Escherichia coli, 22 h
[13] = system: E. coli JUHL; test: Agar dilution MIC, E. coli JUHL; settings: Escherichia coli, 22 h
[14] = system: E. coli DC-2; test: Agar dilution MIC, E. coli DC-2; settings: Escherichia coli, DC2, 22 h
[15] = system: E. coli KNK 437; test: Agar dilution MIC, E. coli KNK 437; settings: Escherichia coli, KNK437, 22 h
[16] = system: Strep. bovis A5169; test: Agar dilution MIC, Strep. bovis A5169; settings: Streptococcus equinus, A5169, 22 h
[17] = system: Staph. aureus A5177; test: Agar dilution MIC, Staph. aureus A5177; settings: Staphylococcus aureus, A5177, 22 h
[18] = system: Strep. pyogenes EES61; test: Agar dilution MIC, Strep. pyogenes EES61; settings: Streptococcus pyogenes, EES61, 22 h
[19] = system: Staph. aureus CMX 686B; test: Agar dilution MIC, Staph. aureus CMX 686B; settings: Staphylococcus aureus, CMX686B, 22 h
[20] = system: Micrococcus luteus 9341; test: Agar dilution MIC, Micrococcus luteus 9341; settings: Micrococcus luteus, 9341, 22 h
[21] = system: Micrococcus luteus 4698; test: Agar dilution MIC, Micrococcus luteus 4698; settings: Micrococcus luteus, 4698, 22 h
[22] = system: Staph. aureus ATCC 6538P; test: Agar dilution MIC, Staph. aureus ATCC 6538P; settings: Staphylococcus aureus, ATCC6538P, 22 h
[23] = system: Pseudomonas cepacia 2961; test: Agar dilution MIC, Pseudomonas cepacia 2961; settings: Burkholderia cepacia, 2961, 22 h
[24] = system: Strep. agalactiae CMX 508; test: Agar dilution MIC, Strep. agalactiae CMX 508; settings: Streptococcus agalactiae, CMX508, 22 h
[25] = system: Klebsiella pneumoniae 8045; test: Agar dilution MIC, Klebsiella pneumoniae 8045; settings: Klebsiella pneumoniae, 8045, 22 h
[26] = system: Staph. epidermidis 3519 RARI; test: Agar dilution MIC, Staph. epidermidis 3519 RARI; settings: Staphylococcus epidermidis, 22 h
[27] = system: Pseudomonas aeruginosa BMH10; test: Agar dilution MIC, Pseudomonas aeruginosa BMH10; settings: BMH10, 22 h
[28] = 4 mg/kg intravenously, one hour period, mean of stomach, duodenum and jejunum ratios to erythromycin A lactobionate

Structure (SMILES): CC[C@H]1OC(=O)[C@H](C)[C@@H](O[C@H]2C[C@@](C)(OC)[C@@H](O)[C@H](C)O2)[C@H](C)[C@@H](O[C@@H]2O[C@H](C)C[C@H](N(C)C)[C@H]2O)[C@](C)(OC)C[C@@H](C)C(=O)[C@H](C)[C@@H](O)[C@]1(C)O [6-O--Me--Ery A, 6-O-methyl erythromycin A]
- Gastrointestinal Motility Index ([1]; in vivo, iv, 4 mg/kg): 0.37
- stimulation of the gastrointestinal tissues ([1]; in vivo, iv, 4 mg/kg): less of a gastrointestinal response

Structure (SMILES): CC[C@H]1OC(=O)[C@H](C)[C@@H](O[C@H]2C[C@@](C)(OC)[C@@H](O)[C@H](C)O2)[C@H](C)[C@@H](O[C@@H]2O[C@H](C)C[C@H](N(C)C)[C@H]2O)[C@](C)(O)C[C@@H](C)C(=O)[C@H](C)[C@@H](O)[C@H]1C [Ery B, erythromycin B]
- Gastrointestinal Motility Index ([1]; in vivo, iv, 4 mg/kg): 2.47

Structure (SMILES): CC[C@H]1OC(=O)[C@H](C)[C@@H](O[C@H]2C[C@@](C)(OC)[C@@H](O)[C@H](C)O2)[C@H](C)[C@@H](O[C@@H]2O[C@H](C)C[C@H](N(C)C)[C@H]2O)[C@](C)(O)C[C@@H](C)C(=O)[C@H](C)[C@@H](O)[C@]1(C)O [Erythromycin A]
- MIC [2]: 6.2 mg/L (≈ 8.45 µM)
- MIC [3]: > 100 mg/L
- MIC [4]: 0.1 mg/L (≈ 0.136 µM)
- MIC [5]: 0.05 mg/L (≈ 0.0681 µM)
- MIC [6]: 3.1 mg/L (≈ 4.22 µM)
- MIC [7]: 50 mg/L (≈ 68.1 µM)
- MIC [8]: > 100 mg/L
- MIC [9]: > 100 mg/L
- MIC [10]: 50 mg/L (≈ 68.1 µM)
- MIC [11]: 1.56 mg/L (≈ 2.13 µM)

Structure (SMILES): CC[C@H]1OC(=O)[C@H](C)[C@@H](O[C@H]2C[C@@](C)(OC)[C@@H](OC(N)=O)[C@H](C)O2)[C@H](C)[C@@H](O[C@@H]2O[C@H](C)C[C@H](N(C)C)[C@H]2O)[C@](C)(OC)C[C@@H](C)C(=O)[C@H](C)[C@@H](O)[C@]1(C)O [Example 1, 6-O-methyl-erythromycin A-4"-carbamate]
- Gastrointestinal Motility Index [1, 28]: 0.03
- MIC [12]: 0.2 mg/L (≈ 0.253 µM)
- MIC [13]: 12.5 mg/L (≈ 15.8 µM)
- MIC [14]: 50 mg/L (≈ 63.2 µM)
- MIC [2]: 6.2 mg/L (≈ 7.84 µM)
- MIC [15]: 25 mg/L (≈ 31.6 µM)
- MIC [16]: 0.02 mg/L (≈ 0.0253 µM)
- MIC [17]: 0.39 mg/L (≈ 0.493 µM)
- MIC [3]: > 100 mg/L
- MIC [18]: 0.01 mg/L (≈ 0.0126 µM)
- MIC [19]: 0.05 mg/L (≈ 0.0632 µM)
- MIC [4]: 0.05 mg/L (≈ 0.0632 µM)
- MIC [20]: 0.02 mg/L (≈ 0.0253 µM)
- MIC [21]: 0.39 mg/L (≈ 0.493 µM)
- MIC [22]: 0.02 mg/L (≈ 0.0253 µM)
- MIC [5]: 0.05 mg/L (≈ 0.0632 µM)
- MIC [23]: 50 mg/L (≈ 63.2 µM)
- MIC [6]: 6.2 mg/L (≈ 7.84 µM)
- MIC [24]: 0.02 mg/L (≈ 0.0253 µM)
- MIC [7]: 25 mg/L (≈ 31.6 µM)
- MIC [25]: 50 mg/L (≈ 63.2 µM)
- MIC [8]: 50 mg/L (≈ 63.2 µM)
- MIC [26]: 0.1 mg/L (≈ 0.126 µM)
- MIC [9]: 100 mg/L (≈ 126 µM)
- MIC [27]: 50 mg/L (≈ 63.2 µM)
- MIC [10]: 50 mg/L (≈ 63.2 µM)
- MIC [11]: 1.56 mg/L (≈ 1.97 µM)

Structure (SMILES): CC[C@H]1OC(=O)[C@H](C)[C@@H](O[C@H]2C[C@@](C)(OC)[C@@H](OC(N)=O)[C@H](C)O2)[C@H](C)[C@@H](O[C@@H]2O[C@H](C)C[C@H](N(C)C)[C@H]2O)[C@](C)(O)C[C@@H](C)C(=O)[C@H](C)[C@@H](O)[C@H]1C [Example 2, Erythromycin B-4"-carbamate]
- Gastrointestinal Motility Index [1, 28]: 0.17

Structure (SMILES): CC[C@H]1OC(=O)[C@H](C)[C@@H](O[C@H]2C[C@@](C)(OC)[C@@H](OC(N)=O)[C@H](C)O2)[C@H](C)[C@@H](O[C@@H]2O[C@H](C)C[C@H](N(C)C)[C@H]2O)[C@](C)(O)C[C@@H](C)C(=O)[C@H](C)[C@@H](O)[C@]1(C)O [Example 4, Erythromycin A-4"-carbamate]
- Gastrointestinal Motility Index [1, 28]: 0.11

Structure (SMILES): CC[C@H]1OC(=O)[C@H](C)[C@@H](O[C@H]2C[C@@](C)(OC)[C@@H](O)[C@H](C)O2)[C@H](C)[C@@H](O[C@@H]2O[C@H](C)C[C@H](N(C)C)[C@H]2O)[C@](C)(O)C[C@@H](C)C(=O)[C@H](C)[C@@H](O)[C@]1(C)O [erythromycin A lactobionate]
- stimulation of the gastrointestinal tissues ([1]; in vivo, iv, 4 mg/kg): pronounced stimulation of the stomach, duodenum, jejunum and ileum

Structure (SMILES): CC[C@H]1OC(=O)[C@H](C)[C@@H](O[C@H]2C[C@@](C)(OC)[C@@H](O)[C@H](C)O2)[C@H](C)[C@@H](O[C@@H]2O[C@H](C)C[C@H](N(C)C)[C@H]2O)[C@](C)(O)C[C@@H](C)C(=O)[C@H](C)[C@@H](O)[C@H]1C [erythromycin B lactobionate]
- stimulation of the gastrointestinal tissues ([1]; in vivo, iv, 4 mg/kg): pronounced stimulation of the stomach, duodenum, jejunum and ileum
